Experimental data published in ChEMBL document CHEMBL4651402, “Screening of ~5500 FDA-approved drugs and clinical candidates for anti-SARS-CoV-2 activity” (2021).
pIC50: −log10 of the molar value. Square brackets hold non-standard residues; d marks the D form. Peptide text beside a SMILES is read from it. Orn = NCCC[C@H](N)C(=O)O

Tested on: SARS-CoV-2
Assay: microbe, parasite or virus in culture
Settings: Severe acute respiratory syndrome coronavirus 2, Vero C1008, 48 h; for IC50: read-out: pIC50 (converted)

| Structure (SMILES) | pIC50 | IC50 [µM] |
| --- | --- | --- |
| CCOC(=O)C1=C[C@@H](OC(CC)CC)[C@H](NC(C)=O)[C@@H](N)C1 [OSELTAMIVIR] | < 4.70 | > 20 |
| CNc1cccc(NC(=O)NC2N=C(c3ccccn3)c3ccccc3N(CC(=O)C(C)(C)C)C2=O)c1 (stereo unspecified) | < 4.70 | > 20 |
| CNC(=O)c1cc(Oc2ccc3nc(N[C@@H]4CCCC[C@H]4O)sc3c2)ccn1 [SOTULETINIB] | < 4.70 | > 20 |
| c1cnc(N2CCN(Cc3ccc4c(c3)OCO4)CC2)nc1 [PIRIBEDIL] | < 4.70 | > 20 |
| CC(=O)c1ccc[nH]1 [2-ACETYLPYRROLE] | < 4.70 | > 20 |
| CC(=O)OC1C([N+]2(C)CCCCC2)CC2C3CC[C@H]4C[C@H](OC(C)=O)C([N+]5(C)CCCCC5)CC4(C)C3CCC21C (stereo partly specified) | < 4.70 | > 20 |
| CC(=O)N(O)CCCCCNC(=O)CCC(=O)N(O)CCCCCNC(=O)CCC(=O)N(O)CCCCCN [DEFEROXAMINE] | < 4.70 | > 20 |
| COc1ccc([C@@H]2CC(=O)c3c(O)cc(O)cc3O2)cc1O [HESPERETIN] | < 4.70 | > 20 |
| COc1ccc(C(=O)Nc2ccccc2CCC2CCCCN2C)cc1 (stereo unspecified) [ENCAINIDE] | < 4.70 | > 20 |
| CN[C@@H]1CC[C@@H](c2ccccc2)c2ccccc21 [TAMETRALINE] | < 4.70 | > 20 |
| CCN(CC)CCOc1ccc(Cc2ccccc2)cc1 | < 4.70 | > 20 |
| O=C(Nc1ccccc1Br)N[C@H]1CCN(c2ccc(C(F)(F)F)cn2)C1 | < 4.70 | > 20 |
| COc1cc(C(=O)Nc2ccccc2CCC2CCCCN2C)ccc1O (stereo unspecified) [MODECAINIDE] | < 4.70 | > 20 |
| CO/N=C(\C(=O)N[C@@H]1C(=O)N2C(C(=O)O)=C(C[N+]3(C)CCCC3)CS[C@H]12)c1csc(N)n1 | < 4.70 | > 20 |
| C=C1[C@H](n2ccc(N)nc2=O)O[C@H](CO)[C@H]1O | < 4.70 | > 20 |
| CC(=O)OCC(=O)[C@@]12OC(C)(C)O[C@@H]1C[C@H]1[C@@H]3C[C@H](F)C4=CC(=O)C=C[C@]4(C)[C@@]3(F)[C@@H](O)C[C@@]12C [FLUOCINONIDE] | < 4.70 | > 20 |
| C=CC1=C(C(=O)O)N2C(=O)[C@@H](NC(=O)/C(=N\OCC(=O)O)c3csc(N)n3)[C@H]2SC1 [CEFIXIME] | < 4.70 | > 20 |
| CC(C)Nc1nc2cc(Cl)c(Cl)cc2n1[C@H]1O[C@@H](CO)[C@H](O)[C@@H]1O [MARIBAVIR] | < 4.30 | > 50.1 |
| CNC=O | < 4.70 | > 20 |
| CCn1ccc(NS(=O)(=O)c2ccc(N)cc2)nc1=O [SULFACYTINE] | < 4.70 | > 20 |
| C=C1C(=O)OC2C[C@@]3(C)CCC[C@H](C)C3=CC12 (stereo partly specified) | < 4.70 | > 20 |
| Clc1ccc(N2CCN(C/C=C/c3ccccc3)CC2)nn1 [LORCINADOL] | < 4.70 | > 20 |
| NCCC(O)C(=O)N[C@H]1C[C@@H](N)[C@H](O[C@H]2O[C@H](CN)[C@@H](O)[C@H](O)[C@H]2O)[C@@H](O)[C@@H]1O[C@H]1O[C@H](CO)[C@@H](O)[C@H](N)[C@H]1O (stereo partly specified) | < 4.70 | > 20 |
| CN(C)[C@@H]1C(O)=C(C(N)=O)C(=O)[C@@]2(O)C(O)=C3C(=O)c4c(O)ccc(Cl)c4[C@@](C)(O)C3C[C@@H]12 (stereo partly specified) | < 4.70 | > 20 |
| Cc1ccsc1C(=CCCN1CCC[C@@H](C(=O)O)C1)c1sccc1C [TIAGABINE] | < 4.70 | > 20 |

| Structure (SMILES) | pIC50 | IC50 [µM] |
| --- | --- | --- |
| CC(=O)Oc1cc2c(s1)CCN(C(C(=O)C1CC1)c1ccccc1F)C2 (stereo unspecified) | < 4.70 | > 20 |
| N[C@@H](CCC(=O)N[C@@H](CS)C(=O)NCC(=O)O)C(=O)O [GLUTATHIONE] | < 4.70 | > 20 |
| O=c1oc2cc(O)ccc2s1 [TIOXOLONE] | < 4.70 | > 20 |
| CN(C)CCN1C(=O)c2ccccc2N(C)c2ccccc21 [DIBENZEPIN] | < 4.70 | > 20 |
| Cc1cccc(N2CCN(CCCOc3ccc4ccc(O)nc4c3)CC2)c1C | < 4.70 | > 20 |
| O=S(=O)(O)CCS [2-MERCAPTOETHANESULFONIC ACID] | < 4.70 | > 20 |
| CCN1CCN(C(=O)N[C@@H](C(=O)N[C@@H]2C(=O)N3C(C(=O)O)=C(CSc4nnnn4C)CS[C@H]23)c2ccc(O)cc2)C(=O)C1=O [CEFOPERAZONE] | < 4.70 | > 20 |
| Cc1ncc([N+](=O)[O-])n1CCO [METRONIDAZOLE] | < 4.70 | > 20 |
| CC1=NN(c2ccccc2)C(=O)C1 [EDARAVONE] | < 4.70 | > 20 |
| CC(C)NCC(O)c1cc(O)cc(O)c1 (stereo unspecified) | < 4.70 | > 20 |
| C#Cc1cccc(Nc2ncnc3cc(OCCOC)c(OCCOC)cc23)c1 [ERLOTINIB] | < 4.70 | > 20 |
| Cc1c2c(cn1C)NC(=O)CN=C2c1ccccc1 [PREMAZEPAM] | < 4.70 | > 20 |
| NCCc1c[nH]c2ccc(O)cc12 [SEROTONIN] | < 4.70 | > 20 |
| COc1ccc2c3c1O[C@H]1[C@@H](O)C=C[C@@]4(O)[C@@H](C2)N(C)CC[C@]314 | < 4.70 | > 20 |
| Cc1ccc([C@H]2O[C@H](CO)[C@@H](O)[C@H](O)[C@H]2O)cc1Cc1ccc(-c2ccc(F)cc2)s1 | < 4.70 | > 20 |
| O=P(O)(NCCCl)NCCCl [PALIFOSFAMIDE] | < 4.70 | > 20 |
| C[C@H]1c2nnn(-c3ncc(F)cn3)c2CCN1C(=O)c1cccc(C(F)(F)F)c1Cl | < 4.70 | > 20 |
| O=C(O)c1ccccc1OP(=O)(O)O [FOSFOSAL] | < 4.70 | > 20 |
| CC(=O)OCC(=O)C1CCC2C3CC[C@H]4CC(O)CCC4(C)C3C(=O)CC12C (stereo partly specified) | < 4.70 | > 20 |
| O=C(NC[C@H](O)CO)c1ccncc1Nc1ccc(I)cc1F [PIMASERTIB] | < 4.70 | > 20 |
| O=C(CCCCC(=O)Nc1c(I)cc(I)c(C(=O)O)c1I)Nc1c(I)cc(I)c(C(=O)O)c1I [IODIPAMIDE] | < 4.70 | > 20 |
| CC1=CC(=O)C(C(C)C)=CC1=O [THYMOQUINONE] | < 4.70 | > 20 |
| CN(C)CCCCCCN(C)C | < 4.70 | > 20 |
| Nc1ncnc2c1ncn2[C@@H]1O[C@H](CO)[C@@H](O)[C@H]1O [ADENOSINE] | < 4.70 | > 20 |
| CC[C@H](O)C(C[C@@H](C)N(C)C)(c1ccccc1)c1ccccc1 [BETAMETHADOL] | < 4.70 | > 20 |

| Structure (SMILES) | pIC50 | IC50 [µM] |
| --- | --- | --- |
| Cc1cc(=O)n(-c2ccccc2)n1C [ANTIPYRINE] | < 4.70 | > 20 |
| COc1cc(N)c(Cl)cc1C(=O)NC1CCN2CCCC1C2 (stereo unspecified) [RENZAPRIDE] | < 4.70 | > 20 |
| CCOC[C@]12Cc3cnn(-c4ccc(F)cc4)c3C=C1CCN(S(=O)(=O)c1ccc(C(F)(F)F)cc1)C2 [CORT 108297] | < 4.70 | > 20 |
| CC(C)C[C@@H]1NC(=O)[C@H](CCCN)NC(=O)[C@H](C(C)C)NC(=O)[C@@H]2CCCN2C(=O)[C@@H](Cc2ccccc2)NC(=O)[C@H](CC(C)C)NC(=O)[C@H](CCCN)NC(=O)[C@H](C(C)C)NC(=O)[C@@H]2CCCN2C(=O)[C@@H](Cc2ccccc2)NC1=O [GRAMICIDIN S] (cyclo(L[dF]PV[Orn]L[dF]PV[Orn])) | < 4.70 | > 20 |
| O=C(O)C(=O)O [OXALIC ACID] | < 4.70 | > 20 |
| C=C1C(=O)O[C@@H]2[C@H]3C(C)=CC[C@@]34O[C@@]4(C)CC[C@@H]12 [ARGLABIN] | < 4.70 | > 20 |
| CCc1cc(C(N)=S)ccn1 [ETHIONAMIDE] | < 4.70 | > 20 |
| CC12C=CC(=O)C=C1CCC1C2C(O)CC2(C)C1CCC2(O)C(=O)COC(=O)CCCc1ccc(N(CCCl)CCCl)cc1 (stereo unspecified) | < 4.70 | > 20 |
| CS(=O)(=O)c1ccc(C2=C(c3ccccc3)C(=O)OC2)cc1 [ROFECOXIB] | < 4.70 | > 20 |
| CC[C@@](C)(Nc1ccnc(-c2c[nH]c3ncccc23)n1)C(=O)NCC(F)(F)F [DECERNOTINIB] | < 4.70 | > 20 |
| COc1c(N2CCNC(C)C2)c(F)cc2c(=O)c(C(=O)O)cn(C3CC3)c12 (stereo unspecified) [GATIFLOXACIN] | < 4.70 | > 20 |
| C[C@H](C#Cc1ccc(Cc2ccc(F)cc2)s1)N(O)C(N)=O [ATRELEUTON] | < 4.70 | > 20 |
| Oc1cc(O)c2cc(O)c(-c3ccc(O)c(O)c3)[o+]c2c1 [CYANIDIN] | < 4.70 | > 20 |
| CC[C@@H](C(N)=O)N1CCCC1=O | < 4.70 | > 20 |
| Cc1nc(O)c2cc(CN(C)c3ccc(C(=O)NC(CCC(=O)O)C(=O)O)s3)ccc2n1 (stereo unspecified) | < 4.70 | > 20 |
| COC(=O)[C@@H](N)CCCNC(=N)N[N+](=O)[O-] | < 4.70 | > 20 |
| NCCc1ccc(O)cc1 [TYRAMINE] | < 4.70 | > 20 |
| O=C(C1CCCCC1)N1CC(=O)N2CCCc3ccccc3C2C1 (stereo unspecified) | < 4.70 | > 20 |
| c1cc2c(c(N3CCNCC3)c1)OCCO2 [ELTOPRAZINE] | < 4.70 | > 20 |
| CC(CCc1ccccc1)NCC(O)c1ccc(O)c(C(N)=O)c1 (stereo unspecified) [LABETALOL] | < 4.70 | > 20 |
| CC[N+]1(CC)CCC(OC(=O)C(O)(c2ccccc2)c2ccccc2)C1 (stereo unspecified) [BENZILONIUM] | < 4.70 | > 20 |
| NC(=O)OCCCc1ccccc1 [PHENPROBAMATE] | < 4.70 | > 20 |
| COc1c(C)c2c(c(O)c1C/C=C(\C)CCC(=O)OCCN1CCOCC1)C(=O)OC2 [MYCOPHENOLATE MOFETIL] | < 4.70 | > 20 |
